Patent US10961202B2, “Bis-benzimidazole compounds and methods of using the same” (THE SCRIPPS RESEARCH INSTITUTE, priority 2017, dated 2021)

Experiments:
[1] = system: r(CUG)12-MBNL1 complex; test: Inhibition of the r(CUG)12-MBNL1 complex measured by TR-FRET; type: biochemical; conditions: 80 nM RNA, 60 nM MBNL1-His6
[2] = system: MBNL1 exon 5 inclusion in DM1 myotubes; test: Myotube splicing rescue assay (MBNL1 exon 5 inclusion); type: cell-based, human; conditions: 48-hour incubation

| Structure (SMILES) | IC50 ([1]; Table M) [µM] | MBNL1 % splicing rescue at 10 μM [2] [%] | IC50 ([1]; Table L) [µM] | MBNL1 % splicing rescue at 1 μM [2] [%] |
| --- | --- | --- | --- | --- |
| CN(C)CCCOc1ccc2nc(-c3ccc(-c4nc5ccc(OCCCN(C)C)cc5[nH]4)c(Cl)c3)[nH]c2c1 [Compound 257, 3,3′-((2,2′-(2-chloro-1,4-phenylene)bis(1H-benzo[d]imidazole-6,2-diyl))bis(oxy))bis(N,N-dimethylpropan-1-amine)] | 24.6 | 92.1 |  |  |
| CN(C)CCCOc1ccc2nc(-c3ccc(-c4nc5ccc(OCCCN(C)C)cc5[nH]4)c(OCCCl)c3)[nH]c2c1 [Compound 267, 3,3′-(((2-(2-chloroethoxy)-1,4-phenylene)bis(1H-benzo[d]imidazole-2,6-diyl))bis(oxy))bis(N,N-dimethylpropan-1-amine)] | 10.9 | 1.8 |  |  |
| Nc1cc(-c2nc3ccc(C(=O)NCCN4CCCCC4)cc3[nH]2)ccc1-c1nc2ccc(C(=O)NCCN3CCCCC3)cc2[nH]1 [Compound 176, 2,2′-(2-amino-1,4-phenylene)bis(N-(2-(piperidin-1-yl)ethyl)-1H-benzo[d]imidazole-6-carboxamide)] | 5.52 | −5.0 |  |  |
| CN(C)CCCOc1c(F)cc2nc(-c3ccc(-c4nc5cc(F)c(OCCCN(C)C)c(F)c5[nH]4)cc3)[nH]c2c1F [Compound 273] | 6.1 | −15.3 |  |  |
| O=C(NCCN1CCCCC1)c1ccc(-c2nc3cc(-c4ccc5[nH]c(-c6ccc(C(=O)NCCN7CCCCC7)cc6)nc5c4)ccc3[nH]2)cc1 [Compound 116] |  | 74.7 | 5.3 |  |
| Nc1ccc(-c2nc3cc(-c4ccc5[nH]c(-c6ccc(NC7=NCCN7C7=NCCN7)cc6)nc5c4)ccc3[nH]2)cc1 [Compound 160] |  | 63.0 | 19.2 |  |
| CN(C)CCCOc1ccc2nc(-c3ccc(-c4ccc(-c5nc6ccc(OCCCN(C)C)cc6[nH]5)cc4)cc3)[nH]c2c1 [Compound 170] | 6.14 | 85.5 |  | 24.6 |
| O=C(NCCN1CCC(O)CC1)c1ccc2[nH]c(-c3ccc(-c4nc5ccc(C(=O)NCCN6CCC(O)CC6)cc5[nH]4)cc3)nc2c1 [Compound 146] |  | 7.1 | 15.8 | 0.8 |
| [N-]=[N+]=NCCN1CCN(CCNC(=O)c2ccc3nc(-c4ccc(-c5nc6ccc(C(=O)NCCN7CCCCC7)cc6[nH]5)cc4)[nH]c3c2)CC1 [Compound 172, N-(2-(4-(2-azidoethyl)piperazin-1-yl)ethyl)-2-(4-(6-((2-(piperidin-1-yl)ethyl)carbamoyl)-1H-benzo[d]imidazol-2-yl)phenyl)-1H-benzo[d]imidazole-6-carboxamide] | 28.3 | 14.2 |  | 22.1 |
| N=C(N)CCCOc1ccc2nc(-c3ccc(-c4nc5ccc(OCCCC(=N)N)cc5[nH]4)cc3)[nH]c2c1 [Compound 297] | 9.7 | −4.4 |  |  |
| CN(C)CCCOc1ccc2nc(-c3ccc(-c4nc5ccc(NC6=NCCN6C6=NCCN6)cc5[nH]4)cc3)[nH]c2c1 [Compound 171] | 9.66 | 7.8 |  | 11.5 |
| O=C(NCCN1CCCCC1)c1ccc2nc(-c3ccc(-c4nc5ccc(C(=O)NCCN6CCCCC6)cc5[nH]4)c([N+](=O)[O-])c3)[nH]c2c1 [Compound 173, 2,2′-(2-nitro-1,4-phenylene)bis(N-(2-(piperidin-1-yl)ethyl)-1H-benzo[d]imidazole-6-carboxamide)] | 22 | 23.1 |  | 1.5 |
| CN1CCC[C@H]1COc1ccc(-c2nc3cc(-c4ccc5[nH]c(-c6ccc(O)cc6)nc5c4)ccc3[nH]2)cc1 [Compound 357] | 15.1 | 66.0 |  | 1.1 |
| CN(C)CCCOc1ccc(-c2nc3cc(-c4ccc5[nH]c(-c6ccc(O)cc6)nc5c4)ccc3[nH]2)cc1 [Compound 348] | 16.8 | 75.3 |  | 75.3 |
| CN(C)CCNC(=O)c1ccc(-c2nc3cc(-c4ccc5[nH]c(-c6ccc(C(=O)NCCN(C)CCCCc7cn(CCCNC(=O)CCC(=O)NCCCn8cc(CCCCN(C)CCNC(=O)c9ccc(-c%10nc%11cc(-c%12ccc%13[nH]c(-c%14ccc(C(=O)NCCN(C)C)cc%14)nc%13c%12)ccc%11[nH]%10)cc9)nn8)nn7)cc6)nc5c4)ccc3[nH]2)cc1 [Compound 408] | 0.51 |  |  | 3.9 |
| CN1CCC(NC(=O)c2ccc(-c3nc4cc(-c5ccc6[nH]c(-c7ccc(C(=O)NC8CCN(C)CC8)cc7)nc6c5)ccc4[nH]3)cc2)CC1 [Compound 338] | 4.56 | −5.3 |  | 7.8 |
| CC(C)N(CCNC(=O)c1ccc(-c2nc3cc(-c4ccc5[nH]c(-c6ccc(C(=O)NCCN(C(C)C)C(C)C)cc6)nc5c4)ccc3[nH]2)cc1)C(C)C [Compound 113] |  | 45.3 | 12.6 | 7.9 |
| O=C(NCCN1CCCCC1)c1ccc2nc(-c3ccc(-c4nc5ccc(C(=O)NCCN6CCNCC6)cc5[nH]4)cc3)[nH]c2c1 [Compound 126, N-(2-(piperazin-1-yl)ethyl)-2-(4-(6-((2-(piperidin-1-yl)ethyl)carbamoyl)-1H-benzo[d]imidazol-2-yl)phenyl)-1H-benzo[d]imidazole-6-carboxamide] |  | 29.6 | 9.5 | 16.6 |
| CN(C)CCCOc1ccc2nc(-c3ccc(-c4nc5ccc(OCCCN(C)C)cc5[nH]4)c(O)c3)[nH]c2c1 [Compound 256, 2,5-bis(6-(3-(dimethylamino)propoxy)-1H-benzo[d]imidazol-2-yl)phenol] | 10.7 | 90.6 |  |  |

| Structure (SMILES) | IC50 ([1]; Table M) [µM] | MBNL1 % splicing rescue at 10 μM [2] [%] | IC50 ([1]; Table L) [µM] | MBNL1 % splicing rescue at 1 μM [2] [%] |
| --- | --- | --- | --- | --- |
| CN(C)CCNC(=O)c1ccc2nc(-c3ccc4cc(-c5nc6ccc(C(=O)NCCN(C)C)cc6[nH]5)ccc4c3)[nH]c2c1 [Compound 462] |  | −2.7 |  |  |
| CN(CC(=O)NCCN1CCN(CCNC(=O)c2ccc3nc(-c4ccc(-c5nc6ccc(C(=O)NCCN7CCCCC7)cc6[nH]5)cc4)[nH]c3c2)CC1)CC(=O)NCCN1CCN(CCNC(=O)c2ccc3nc(-c4ccc(-c5nc6ccc(C(=O)NCCN7CCCCC7)cc6[nH]5)cc4)[nH]c3c2)CC1 [Compound 405] |  | −2.5 |  |  |
| O=C(O)c1ccc2nc(-c3ccc(-c4nc5ccc(C(=O)O)cc5[nH]4)cc3)[nH]c2c1 [Compound 11, 2,2′-(1,4-phenylene)bis(1H-benzo[d]imidazole-6-carboxylic acid)] |  |  | > 200 |  |
| CC(=O)Nc1ccc2nc(-c3ccc(-c4nc5ccc(N)cc5[nH]4)cc3)[nH]c2c1 [Compound 4, N-(2-(4-(5-amino-1H-benzo[d]imidazol-2-yl)phenyl)-1H-benzo[d]imidazol-5-yl)acetamide] |  |  | > 200 |  |
| COCCCOc1ccc(-c2nc3cc(-c4ccc5[nH]c(-c6ccc(C(=O)NCCN(C)C)cc6)nc5c4)ccc3[nH]2)cc1 [Compound 391] | 18.4 |  |  |  |
| CN(C)CCCOc1ccc2nc(-c3cc(F)c(-c4nc5ccc(OCCCN(C)C)cc5[nH]4)cc3F)[nH]c2c1 [Compound 296] | 8.4 |  |  |  |
| Cn1c(-c2ccc(-c3nc4ccc(Br)cc4n3C)cc2)nc2ccc(Br)cc21 [Compound 90, 1,4-bis(6-bromo-1-methyl-1H-benzo[d]imidazol-2-yl)benzene] |  |  | > 200 |  |
| CCOC(CNC(=N)Nc1ccc2nc(-c3ccc(-c4nc5ccc(N)cc5[nH]4)cc3)[nH]c2c1)OCC [Compound 17, 1-(2-(4-(5-amino-1H-benzo[d]imidazol-2-yl)phenyl)-1H-benzo[d]imidazol-5-yl)-3-(2,2-diethoxyethyl)guanidine] |  |  | 37 |  |
| CN(C)CC(C)(C)COc1ccc(-c2nc3cc(-c4ccc5[nH]c(-c6ccc(OCC(C)(C)CN(C)C)cc6)nc5c4)ccc3[nH]2)cc1 [Compound 376] | 69.5 |  |  |  |
| CN(C)CCOCCOc1ccc2nc(-c3ccc(-c4nc5ccc(OCCOCCN(C)C)cc5[nH]4)cc3)[nH]c2c1 [Compound 179, 2,2′-((((1,4-phenylenebis(1H-benzo[d]imidazole-2,6-diyl))bis(oxy))bis(ethane-2,1-diyl))bis(oxy))bis(N,N-dimethylethan-1-amine)] | 189 |  |  |  |
| C#CCCCNC(=O)CCCOc1ccc2[nH]c(-c3ccc(-c4nc5cc(OCCCN(C)C)ccc5[nH]4)cc3)nc2c1 [Compound 322] | 39.8 |  |  |  |
| N#CCCCOc1ccc2nc(-c3ccc(-c4nc5ccc(OCCCC#N)cc5[nH]4)cc3)[nH]c2c1 [Compound 289] | > 200 |  |  |  |
| CN1CC[C@@H](Oc2ccc(-c3nc4cc(-c5ccc6[nH]c(-c7ccc(O[C@@H]8CCN(C)C8)cc7)nc6c5)ccc4[nH]3)cc2)C1 [Compound 373] | 29.2 |  |  |  |
| [N-]=[N+]=NCCCOc1ccc(-c2nc3cc(-c4ccc5[nH]c(-c6ccc(OCCCN)cc6)nc5c4)ccc3[nH]2)cc1 [Compound 379] | 28.8 |  |  |  |
| CN(C)CCNC(=O)c1ccc(-c2nc3cc(-c4ccc5[nH]c(-c6ccc(C(=O)NCCCCCNC(=O)c7ccc(-c8nc9cc(-c%10ccc%11[nH]c(-c%12ccc(C(=O)NCCN(C)C)cc%12)nc%11c%10)ccc9[nH]8)cc7)cc6)nc5c4)ccc3[nH]2)cc1 [Compound 414] | 8.16 |  |  |  |
| CN(C)CCNC(=O)c1ccc(-c2nc3ccc(-c4ccc5nc(-c6ccc(C(=O)N(C)CCCN(C)CCCN(C)C(=O)c7ccc(-c8nc9ccc(-c%10ccc%11nc(-c%12ccc(C(=O)NCCN(C)C)cc%12)[nH]c%11c%10)cc9[nH]8)cc7)cc6)[nH]c5c4)cc3[nH]2)cc1 [Compound 449] | 2.5 |  |  |  |
| O=C(NCCCN1CCCCC1)c1ccc2nc(-c3ccc(-c4nc5ccc(C(=O)NCCCN6CCCCC6)cc5[nH]4)cc3)[nH]c2c1 [Compound 48, 2,2′-(1,4-phenylene)bis(N-(3-(piperidin-1-yl)propyl)-1H-benzo[d]imidazole-6-carboxamide)] |  |  | 10.3 |  |
| CN(C)CCCCOc1ccc(-c2nc3cc(-c4ccc5[nH]c(-c6ccc(O)cc6)nc5c4)ccc3[nH]2)cc1 [Compound 363] | 18.7 |  |  |  |
| CN(C)CCSc1ccc(-c2nc3cc(-c4ccc5[nH]c(-c6ccc(SCCN(C)C)cc6)nc5c4)ccc3[nH]2)cc1 [Compound 381] | 49.9 |  |  |  |
